According to patent publication US20220323487A1, “METERED DOSE FOR DEMODEX AND DISORDERS RELATED THERETO” (Azura Ophthalmics Ltd., priority 2019, published 2022):

How the values were obtained:
[1] = tested on: Demodex folliculorum mites; experiment: In vitro assessment of anti-demodectic properties: viability of Demodex mites on epilated eyelashes; conditions: SeS2 4%
[2] = Procedure: The composition is prepared by the combination of selenium disulfide (SeS2) in combination with Petrolatum base (and in the absence of surface acting agents). Compositions comprising various concentrations of selenium disulfide are prepared, such as 0.1 wt. %, 0.5 wt. %, 1 wt. %, 1.5 wt. %, 2 wt. %, and 2.5 wt. %.
Various compositions prepared as described above are administered to the eye or eyelid (e.g., margin thereof) of albino rabbits. Various compositions are administered to distinct cohorts using various treatment protocols, such as based on frequency of administration (e.g., once daily, twice daily, every other day, and once weekly) and volume of administration (e.g., <25 μL, […] per administration). Compositions lacking selenium disulfide are administered to a separate cohort to establish a control.
Albino rabbits are evaluated, and an accurate volume of the composition is ejected from a device (e.g., micropipette) and is delivered to the lower eyelid of the rabbits. In one example, the volume is ˜25 μL (equivalent to 20 mg in weight). The rabbits are examined daily.
2.5% SeS2 at a dosing volume of 25 μL is administered to the animals.
Therefore, a reduced dose of 5 μL (equivalent to 4 mg) is placed on the lid of the rabbits.

[3] = rabbit, in vivo
Excerpt: On a subsequent study to Example 6, concentrations ranging from 0.5 wt. % to 2.5 wt. % were used on New-Zealand rabbits, once daily to twice weekly for 28 days.

Remark: listed apart in the source
[4] = cited from earlier work
[5] = rabbit, in vivo; cited from earlier work
[6] = in vivo; cited from earlier work
[7] = 25 μL (20 mg) of 2.5% SeS2 with petrolatum, lower eyelid of right eye

## S=[Se]=S [SeS2, selenium disulfide]
[1]
  death of the mites: caused death of the mites
[2]; 0.5%, 1.0% or 2.5%, twice weekly or once daily, dose volume 5 μL, summary, species not stated
  clinical or microscopic findings: no clinical or microscopic findings
[2]; rabbit, in vivo
  keratitis, including red and swollen eyelids, animals affected: all animals
  ocular effects at reduced dose: no evidence for any of the effects
[3]
  ophthalmic observations versus previous study: safer
[7]
  finding on clinical examination: keratitis is observed with multiple punctate over the center exposed part of the cornea
  time to reported pain: About 4 hours
Treated with lubricants and local NSAID
  time to resolution of keratitis: ≤ 48 h
[4]; 0.5 percent ointment, all patients complained of burning of the conjunctiva (Rychener)
  tolerability of ointment on the lids: too strong
[4]; human, in vivo
  epithelial keratitis: 6 cases
  keratitis, conjunctivitis with erythematous and swollen lids: Two
[5]
  time to onset of ocular effects after application: ≤ 2 h
[6]
  irritancy to rabbit dermis: did not appear to be irritant
